In patent US20220193030A1, “USE OF GINKGO TERPENE LACTONE IN PREPARING DRUG FOR PREVENTING AND/OR TREATING GUILLAIN-BARRE-STROHL SYNDROME” (CHENGDU BAIYU PHARMACEUTICAL CO., LTD., priority 2019, published 2022):
Marks after values point to notes of the source that are not given here.

Tests used:
IL-12 = assay: mRNA level of IL-12 in sciatic nerve tissue of EAN model rabbits (RT-PCR); type: in vivo, big-ear white rabbits; conditions: 14th day after modeling, ginkgolide groups 4.5 mg/kg intragastric 2 times a day, positive control 400 mg/kg·d i.p. 5 days
Experimental: (§1) 21 experimental groups, 8 rabbits in each group.
(§2) Positive control group: rabbit immune globulin, 400 mg/kg·d, intraperitoneal injection, for 5 consecutive days
(§3) The ginkgolide groups are set the same as Test example 1, i.e., include the ginkgolide A group to the ginkgolide K group (GA group to GK group), the bilobalide group (BB group) and the ginkgolide I group to the ginkgolide XI group, 18 groups in total. Ginkgolide used in each group has the same monomeric composition and ratio as those of Test example 1, but only differs in that the ginkgolide groups all use the same medicine administration dosage, i.e., 4.5 mg/kg.
(§4) Intragastric administration, 2 times a day. Medicines were dissolved in accessories (glycerin:ethanol=6:4 V/V) to reach 5 mg/ml, and then were configured to reach corresponding concentrations by using sterilized drinking water.
(§5) EAN rabbit modeling: a certain amount of bovine sciatic nerve myelin basic protein and an isopyknic complete Freund's adjuvant were taken, shaken up by using a test tube oscillator, sufficiently mixed, and then subcutaneously injected into a back of each rabbit at multiple points.
(§6) Anesthesia was performed on the 14th day after modeling, to take sciatic nerve tissue of rabbits, and total RNA was extracted by a Trizol method. Detection was performed by a RT-PCR method. (GBS is an autoimmune disease of a nervous system. In-vivo autoreactive T cells of a patient have a cellular immunologic response to myelin P2 antigens, to form a delayed allergic reaction peripheral nerve demyelination pathological injury. This process is mainly mediated by CD4^+T cells, also named initial Th cells that may be differentiated into Th1 and Th2 after antigenic stimulation. Th1 cytokines (represented by TNF-α and IL-12) mainly enhance a cell mediated immune response, and are inflammatory cytokines; and Th2 cytokines (represented by IL-4 and IL-10) mainly participate in an antibody mediated immune response, and have an immune down-regulation and anti-inflammation effect. In GBS and ENA research, unbalance of Th1/Th2 plays an important role in disease injuries.)
(§7) Data is represented by mean±standard deviation (x±SD). Differences between two groups were compared. When P is less than 0.05, a statistic difference occurs.

EAN model rats [1] = assay: Test on algesia of ankle joint (pain reaction score) of EAN model rats; type: in vivo, Lewis rats; conditions: ankle dorsiflexion, score 0-5
Experimental: as §4
(§8) For each rat in an EAN model group, an inoculum was subcutaneously injected into foot pads of hind limbs on two sides, 200 μL/rat (100 μL per side). […] For the negative control group, isopyknic normal saline was injected. For each group of animals, medicine administration was started from the first day after immunization, for 30 days in total.
Near a peak period of disease attack of EAN model animals, a test on algesia of ankle joints was performed on EAN model animals and adjuvant control animals, and rats in a rest state were forced to bend hind legs towards foot soles (dorsiflexion). For each side, 5 tests were made, at an interval of at least 5 s. For each time of dorsiflexion, if rats screamed or obviously withdrew paws, 1 score was counted. For each side, a total score is 0-5.
(§9) Data is represented by mean±standard deviation (x±SD). For scores of symptoms and scores of algesia, a non-parametric test Mann-Whitney U was used to compare differences between two groups. When P is less than 0.05, a statistic difference occurs.

EAN model rats [2] = assay: Scores of neurological symptoms (clinical score) of EAN model rats, Test Example 1; type: in vivo, Lewis rats; set-up: key: 0 = normal, 5 = mild hind-limb paralysis, 10 = death; conditions: monomers 4.5 mg/kg, combinations 6.0-13.5 mg/kg; for Clinical score D12: D12, intragastric 2 times a day; for Clinical score D14: D14, intragastric 2 times a day; for Clinical score D22: D22, intragastric 2 times a day; for Clinical score D24: D24, intragastric 2 times a day; for Clinical score D26: D26, intragastric 2 times a day; for Clinical score D20: D20, intragastric 2 times a day
Experimental: 20 experimental groups, 10 […] in each group.
as §4, §8
(§10) The day of molding serves as the 0th day, and after that is 30 days of observation period. Observation date is represented by D plus number, D1, D2 and D3 respectively represent Observation date 1, Observation date 2 and Observation date 3, and subsequent dates are represented in the same way. Rats were weighed once every two days, and clinical symptoms of all experimental animals were scored. Within one week of a peak period (D14-D20) of disease attack of animals, weighing and clinical symptom scoring were performed every day. Score standards are as below: 0, normal; 1, a soft tail; 2, unable to lift a tail; 3, unable to automatically correct a body position; 4, ataxia; 5, mild paralysis of hind limbs; 6, moderate paralysis of hind limbs; 7, severe paralysis of hind limbs; 8, paresis of four limbs; 9, severe paresis of four limbs; and 10, death.
as §9

IL-4 = assay: mRNA level of IL-4 in sciatic nerve tissue of EAN model rabbits (RT-PCR); type: in vivo, big-ear white rabbits; conditions: 14th day after modeling, ginkgolide groups 4.5 mg/kg intragastric 2 times a day, positive control 400 mg/kg·d i.p. 5 days
Experimental: as §1, §2, §3, §4, §5, §6, §7

EAN model rats [3] = assay: Pre-experimental dose study: clinical score of neurological symptoms of EAN model rats; type: in vivo, Lewis rats; conditions: score 0-10
Experimental: Persons skilled in the art learn that, pharmacological effect and dose are in a proportional relationship, i.e., a dose-effect relationship, only within a certain range.
as §8, §10, §9

IL-10 = assay: mRNA level of IL-10 in sciatic nerve tissue of EAN model rabbits (RT-PCR); type: in vivo, big-ear white rabbits; conditions: 14th day after modeling, ginkgolide groups 4.5 mg/kg intragastric 2 times a day, positive control 400 mg/kg·d i.p. 5 days
Experimental: as §1, §2, §3, §4, §5, §6, §7

TNF-α = assay: mRNA level of TNF-α in sciatic nerve tissue of EAN model rabbits (RT-PCR); type: in vivo, big-ear white rabbits; conditions: 14th day after modeling, ginkgolide groups 4.5 mg/kg intragastric 2 times a day, positive control 400 mg/kg·d i.p. 5 days
Experimental: as §1, §2, §3, §4, §5, §6, §7

Compound	Cytokines IL-12 (mRNA level, sciatic nerve tissue) (IL-12)	Pain reaction score (D18) (EAN model rats [1])	Clinical score D12 (EAN model rats [2])	Clinical score D14 (EAN model rats [2])	Clinical score D22 (EAN model rats [2])	Clinical score D24 (EAN model rats [2])	Clinical score D26 (EAN model rats [2])	Cytokines IL-4 (mRNA level, sciatic nerve tissue) (IL-4)	Clinical score (D17) (EAN model rats [3]; 2.0 mg/kg)	Clinical score (D17) (EAN model rats [3]; 4.5 mg/kg)	Clinical score (D17) (EAN model rats [3]; 15 mg/kg)	Cytokines IL-10 (mRNA level, sciatic nerve tissue) (IL-10)	Cytokines TNF-α (mRNA level, sciatic nerve tissue) (TNF-α)	Clinical score D20 (EAN model rats [2])	Clinical score D16 (EAN model rats [2]; D16, intragastric 2 times a day)	Clinical score (D17) (EAN model rats [2]; D17, intragastric 2 times a day)	Clinical score D19 (EAN model rats [2]; D19, intragastric 2 times a day)
ginkgolide C	6.009 ± 0.357	1.9 ± 0.88	4.4 ± 0.7	5.2 ± 0.8	4.4 ± 0.5	3.8 ± 0.8	3.1 ± 0.6	0.585 ± 0.053	6.90 ± 0.88	6.10 ± 0.57*^Δ	6.00 ± 0.67*^Δ	0.561 ± 0.090	4.548 ± 0.154	–	–	–	–
C[C@@H]1C(=O)O[C@@H]2[C@H]1[C@@]13OC4OC(=O)[C@H](O)C45[C@H](C(C)(C)C)[C@@H](O)C(OC1=O)[C@]53[C@H]2O (stereo partly drawn) [Ginkgolide M, ginkgolide M]	6.260 ± 0.411	1.4 ± 0.52	4.5 ± 0.7	5.6 ± 0.5	4.6 ± 0.5	4.0 ± 0.7	3.2 ± 0.6	0.558 ± 0.050	7.10 ± 0.32	6.40 ± 0.97*^Δ	6.50 ± 0.71*^Δ	0.550 ± 0.061	4.797 ± 0.147	5.5 ± 0.5	–	–	–
CC(C)(C)[C@]1(O)CC2OC(=O)CC23C(=O)OC2OC(=O)[C@H](O)C231 (stereo partly drawn) [Bilobalide, bilobalide]	4.087 ± 0.275	2.9 ± 0.74	–	–	–	–	–	0.792 ± 0.065	5.70 ± 0.67	4.80 ± 0.63*^Δ	4.90 ± 0.88*^Δ	0.783 ± 0.128	3.054 ± 0.182	–	–	–	–
CC1=C2[C@@H](OC1=O)[C@H](O)[C@]13[C@H]4C[C@@H](C(C)(C)C)[C@]15[C@@H](OC(=O)[C@@H]5O)O[C@@]23C(=O)O4 [Ginkgolide K, ginkgolide K]	6.412 ± 0.169	1.2 ± 0.63	4.5 ± 0.7	5.6 ± 0.5	4.5 ± 0.5	3.9 ± 0.7	3.1 ± 0.6	0.557 ± 0.046	7.20 ± 0.42	6.50 ± 0.85*^Δ	6.70 ± 0.82*^Δ	0.524 ± 0.026	4.739 ± 0.094	5.5 ± 0.5	–	–	–
C[C@@H]1C(=O)O[C@H]2C[C@@]34[C@H]5C[C@@H](C(C)(C)C)[C@]36[C@@H](OC(=O)[C@@H]6O)O[C@@]4(C(=O)O5)[C@]21O [Ginkgolide A, ginkgolide A]	5.977 ± 0.141	2.0 ± 0.67	4.4 ± 0.5	5.3 ± 0.5	4.4 ± 0.5	3.7 ± 0.8	3.1 ± 0.6	0.569 ± 0.048	7.00 ± 0.82	6.10 ± 0.74*^Δ	6.00 ± 1.25*^Δ	0.584 ± 0.039	4.693 ± 0.115	–	–	–	–
ginkgolide J	6.211 ± 0.489	1.3 ± 0.67	4.4 ± 0.7	5.5 ± 0.5	4.6 ± 0.5	4.0 ± 0.7	3.2 ± 0.6	0.551 ± 0.050	7.10 ± 0.57	6.40 ± 0.84*^Δ	6.30 ± 0.82*^Δ	0.501 ± 0.037	4.810 ± 0.070	5.6 ± 0.5	6.5 ± 0.5	7.4 ± 0.5	6.2 ± 0.6
CC1C(=O)OC2C(O)C34C5CC(C(C)(C)C)C36C(OC(=O)C6O)OC4(C(=O)O5)C12O (stereo not drawn) [Ginkgolide B, ginkgolide B]	3.928 ± 0.409	3.0 ± 0.67	–	–	–	–	–	0.769 ± 0.041	6.10 ± 1.10	5.10 ± 0.57*^Δ	5.20 ± 0.63*^Δ	0.813 ± 0.055	2.978 ± 0.102	–	–	–	–
